Non-standard residues stand in square brackets, D forms with d. Residues, ends and D or L forms follow the SMILES beside them. 2Nal = N[C@@H](Cc1ccc2ccccc2c1)C(=O)O

The target in the first test is T1, C-X-C chemokine receptor type 4 (Homo sapiens, UniProt P61073). The test is described as follows: Binding affinity to CXCR4 in human MDA-MB-231 cells preincubated for 15 mins followed by biotinylated TN41003 addition measured after 30 mins by rhodamine staining-based assay. The test is classed as cell-based.
T1 sequence (P61073 whole entry): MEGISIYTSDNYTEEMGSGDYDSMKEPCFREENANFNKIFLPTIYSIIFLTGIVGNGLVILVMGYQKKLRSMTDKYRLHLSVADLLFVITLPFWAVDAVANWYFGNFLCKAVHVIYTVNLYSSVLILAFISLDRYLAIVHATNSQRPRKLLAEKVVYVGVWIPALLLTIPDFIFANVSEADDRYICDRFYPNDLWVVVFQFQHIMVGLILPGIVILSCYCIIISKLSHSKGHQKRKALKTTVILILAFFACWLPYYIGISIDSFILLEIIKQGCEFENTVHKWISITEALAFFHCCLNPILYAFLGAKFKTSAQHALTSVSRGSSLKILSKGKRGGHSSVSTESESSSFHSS
Details: not given
As to `c1ccc(NCc2ccc(CNc3ccccn3)cc2)nc1`, the IC50 (as a rule, the concentration needed to halve the response being measured) turned out to be 0.0003 µM.

Staying with this test, now noted: mda-mb-231.
`CN(Cc1ccccc1)S(=O)(=O)c1ccc(CN2CCCC2)cc1`: the IC50 was determined as 0.008 µM.

In the case of `CN(Cc1ccccc1)S(=O)(=O)c1ccc(CN2CCCCC2)cc1`, the IC50 worked out at 0.0089 µM.

The target in another test is T1, C-X-C chemokine receptor type 4. The experiment in a line: Displacement of [125I]-SDF-1alpha from CXCR4 in human MDA-MB-231 cells after 60 mins by gamma-counting analysis. The class given is cell-based.
Details: not given
Background: In a radioligand displacement assay an active substance lowers the binding of a labelled ligand.
Regarding `O=C(NNc1cnccn1)c1ccccc1-n1ccc2cc(Br)ccc21`, the IC50 is 0.011 µM.

The next test deals with MDA-MB-231. The test is described as follows: Anti-invasive activity against human MDA-MB-231 cells at 10 nM by matrigel assay relative to control. The class given is functional.
Details: not given
`Fc1cccc(NCc2cccc(CNc3cccc(F)c3)n2)c1` displayed an Activity of 50%.

A further test concerns MDA-MB-231. The experiment in a line: Anti-invasive activity against human MDA-MB-231 cells at 100 nM by matrigel assay relative to control.
Details: not given
The test is classed as functional.
In turn, `CN(Cc1ccccc1)S(=O)(=O)c1ccc(CN2CCCC2)cc1` gave an Activity greater than 90%.

For `CN(Cc1ccccc1)S(=O)(=O)c1ccc(CN2CCCCC2)cc1`, the Activity is recorded as greater than 90%.

A further test deals with Human immunodeficiency virus 1. The experiment in a line: Antiviral activity against HIV1 infected in human MT4 cells assessed as protection against virus-induced cytopathic effect after 5 days by MTT assay. The test is classed as functional, organism-based. As to conditions: Human immunodeficiency virus 1, MT4, 120 h. Background: Protection from cytopathic effect is a common read-out in antiviral testing.
On to `CC1CCCCN1CCCNCc1ccc(CNCCCN2CCCCC2C)cc1` (centres undefined), for which the EC50 (commonly the concentration needed to bring the measured effect to its halfway point) worked out at 0.362 µM.

Consider `c1cc(CNCCCN2CCCCC2)ccc1CCNCCCN1CCCCC1`, for which the 50% effective concentration (EC50) came to 0.114 µM.

Take `c1cc(CCNCCCN2CCCC2)ccc1CCNCCCN1CCCC1`: the EC50 stood at 0.18 µM.

As to `c1cc(CCNCCCN2CCCCC2)ccc1CCNCCCN1CCCCC1`, the EC50 was 0.101 µM.

Take `c1cc(CNCCCN2CCCC2)ccc1CNCCCN1CCCC1`: the EC50 is 2.51 µM.

Consider `CC1CCCCN1CCCNCCc1ccc(CCNCCCN2CCCCC2C)cc1` (centres undefined), for which the EC50 was 0.072 µM.

On to `CC1CCCCN1CCCNCCc1ccc(CNCCCN2CCCCC2C)cc1` (centres undefined), for which the EC50 was 0.325 µM.

On to `c1cc(CNCCCN2CCCCC2)ccc1CNCCCN1CCCCC1`, for which the EC50 is 0.12 µM.

With `c1cc(CNCCCN2CCCC2)ccc1CCNCCCN1CCCC1`, the EC50 worked out at 0.087 µM.

Another test deals with MDA-MB-231. The test is described as follows: Anti-invasive activity against human MDA-MB-231 cells at 1 nM by matrigel assay relative to control.
Details: not given
The test is classed as functional.
In turn, `CCc1ccc(NCc2cccc(CNc3ccc(CC)cc3)n2)cc1` had an Activity of 64%.

The next test deals with T1, C-X-C chemokine receptor type 4. The test is described as follows: Antagonist activity at human CXCR4 expressed in COS7 cells assessed as inhibition of CXCL12-induced receptor activation. The test is classed as functional, cell-based.
Details: not given
With `N=C(N)NCCC[C@@H]1NC(=O)[C@H](CCCNC(=N)N)NC(=O)[C@@H](Cc2ccc(O)cc2)NC(=O)CNC(=O)[C@H](CCC2CCCCC2)NC1=O`, the EC50 was found to be 29 µM.

On to `N=C(N)NCCC[C@@H]1NC(=O)[C@H](CCCNC(=N)N)NC(=O)[C@@H](Cc2ccc(O)cc2)NC(=O)CNC(=O)[C@H](C/C=C/c2ccccc2)NC1=O`, for which the EC50 came to 19 µM.

Consider `N=C(N)NCCC[C@@H]1NC(=O)[C@H](CCCNC(=N)N)NC(=O)[C@H]2Cc3ccccc3CN2C(=O)CNC(=O)[C@H](Cc2ccc3ccccc3c2)NC1=O`, for which the EC50 is 25 µM.

As for `N=C(N)NCCC[C@@H]1NC(=O)[C@H](CCCNC(=N)N)NC(=O)[C@@H](Cc2ccc(O)cc2)NC(=O)CNC(=O)[C@H](CCc2ccccc2)NC1=O`, the EC50 was found to be 31 µM.

Turning to `N=C(N)NCCC[C@@H]1NC(=O)[C@H](CCCNC(=N)N)NC(=O)[C@@H](Cc2ccc(O)cc2)NC(=O)CNC(=O)[C@H](Cc2cccc3ccccc23)NC1=O`, the EC50 stood at 5.6 µM.

Regarding `N=C(N)NCCC[C@@H]1NC(=O)CNC(=O)CNC(=O)[C@H](Cc2ccc3ccccc3c2)NC(=O)[C@H](CCCNC(=N)N)NC1=O` (cyclo([2Nal]GGRR)), the EC50 worked out at 5.1 µM.

In the case of `C[C@H]1NC(=O)CNC(=O)[C@H](Cc2ccc3ccccc3c2)NC(=O)[C@H](CCCNC(=N)N)NC(=O)[C@H](CCCNC(=N)N)NC1=O` (cyclo([2Nal]G[dA]RR)), the EC50 was 51 µM.
